One compound from US11045456B2, “Compositions and methods for treating COPD and other inflammatory conditions” (Georgia State University Research Foundation, Inc., priority 2015, dated 2021) can be followed below.

Format in all cases: cell-based, human
The test system of assay [1] is PDE4A and 4C. Nature of the assay: Expression of other PDE4 family members (PDE4A, 4C) in BEAS-2B cells. The following applies: NTHi or roflumilast. From the text:
(§1) Cell culture. All media described below were supplemented with 10% fetal bovine serum (Sigma-Aldrich). Human bronchial epithelial BEAS-2B cells were maintained in RPMI medium (Life Technologies) (ATCC® CRL-9609™). Human primary bronchial epithelial NHBE (Lonza) cells were maintained in bronchial epithelial growth media (BEGM) supplemented with BEGM SingleQuots (Jono et al., J. Biol. Chem. 277(47):45547-45557, 2002). BEAS-2B cells stably expressing human PDE4B2 (PDE4B2-stable cells) were obtained by plasmid transfection following Geneticin selection (300 μg/mL). Cells were cultured in a humidified atmosphere of 5% CO2 at 37° C.

For assay [2], the system named is p65 or PKA-Cβ. Briefly: Nuclear expression level of p65 or PKA-Cβ in BEAS-2B cells. On the procedure:
Subcellular fractionation. Cells were washed twice and […] with ice cold PBS and centrifuged at 3,000×g for 5 min. The cells were then suspended with Buffer A (10 mM HEPES at pH7.4, 10 mM KCl, 0.1 mM EDTA, 0.1 mM EGTA, 1 mM DTT, supplemented with 1 mM Na3VO4 and PIC) and incubated on ice for 10 min (Schreiber et al., Nucleic Acids Res. 17(15):6419, 1989). The cells were lysed by adding NP40 (0.5%) and vortexing for 15 sec. then centrifuged at 3,000×g for 5 min before the supernatants were removed (cytosol fraction). Precipitates were resuspended in Buffer B (20 mM HEPES at pH7.5, 5 mM NaCl, 1 mM EDTA, […], 1 mM DTT, supplemented with 1 mM Na3VO4 and PIC) and incubated on ice for 10 min. before vortexing and centrifuging at 16,000×g for 15 min to recover the supernatants (nuclear fraction). Western blot. Whole-cell extracts and mouse lung tissue extracts were recovered with lysis buffer (50 mM Tris-HCl at pH7.4, 1% NP40, 0.25% deoxycholate, 150 mM NaCl, 1 mM EDTA, 1 mM NaF, supplemented with 1 mM Na3VO4 and PIC). For PDE4B protein, cell extracts were recovered with Buffer A as described above. Cell or tissue extracts were separated on 8% SDS-PAGE gels and transferred to polyvinylidene difluoride (PVDF) membrane (GE Healthcare Life Sciences). The membrane was blocked with a solution of TBS containing 0.1% Tween 20 (TBS-T) and 5% non-fat dry milk. […]

Assay [3] concerns PDE4B2. Nature of the assay: PDE4B2 expression (RT-PCR) in BEAS-2B cells. As to the method: Bacterial strains and culture condition. Clinical isolates of NTHi strain 12 were used in this study (Ishinaga et al., EMBO J., 26(4):1150-1162, 2007). Bacteria were grown on chocolate agar plates at 37° C. in an atmosphere of 5% CO2 overnight and subsequently inoculated in brain heart infusion (BHI) broth supplemented with 3.5 μg/mL NAD and hemoglobin (BD Biosciences). After overnight incubation, the bacteria were subcultured into fresh broth and the log phase bacteria, monitored by measurement of optical density (OD) value, were washed and suspended in DMEM for in vitro cell experiments and in isotonic saline for in vivo animal experiments. For all in vitro experiments except the dose dependent experiment, NTHi was treated at multiplicity of infection (MOI) of 50.
as §1
Plasmids, transfections and luciferase assay. The expression plasmids, constitutively active forms of IKKα (IKKα-CA, S176E/S180E) and IKKβ (IKKβ-CA, S177E/S181E) and a dominant negative form of IκBα (IκBα-DN, S32A/S36A) were previously described (Shuto et al., Proc. Natl. Acad. Sci. USA, 98(15):8774-8779, 2001; Ishinaga et al., supra). Luciferase reporter construct of NF-κB (pGL4.32) was purchased from Promega. Human PDE4B2, p65 (RelA) and PKA-Cβ1/2 cDNA sequences were generated and inserted into the BamHI and HindIII sites of the pcDNA3.1/mycHis(−) vector. Mutant p65 and PDE4B2-D392A were generated by using PRIMESTAR® Max (Takara). Empty vector was used as a control and was also added where necessary to ensure an equivalent amount of input DNA. All transient transfections were carried out in triplicate using TRANSIT-LT1® reagent (Minis) following the manufacturer's instruction.

Assay [4] deals with Group A chemokines (CCL5, CCL7, CXCL10, CXCL11). Nature of the assay: IKKβ-CA-induced Group A-chemokine expression in PDE4B2-transfected cells. The following applies: up to 10 μM.
Procedure: Plasmids, transfections and luciferase assay. […] Empty vector was used as a control and was also added where necessary to ensure an equivalent amount of input DNA. All transient transfections were carried out in triplicate using TRANSIT-LT1® reagent (Minis) following the manufacturer's instruction.
Assay [5] deals with PDE4D. Nature of the assay: Expression of PDE4D in BEAS-2B cells. The conditions noted are these: NTHi or roflumilast.

For `O=C(Nc1c(Cl)cncc1Cl)c1ccc(OC(F)F)c(OCC2CC2)c1` [roflumilast], the “expression of PDE4A and 4C” value in assay [1] is given as “not up-regulated”. For the same compound, in assay [2], the “nuclear expression level of p65 or PKA-Cβ” value is recorded as “did not affect”. The “expression of PDE4B2” value in assay [3] (BEAS-2B, Rof 0.1 μM with NTHi or TNF-α (10 ng/mL), semi-quantitative RT-PCR) is listed as “synergistically up-regulated”. Also, the PDE4B2 expression result in assay [3] (cells transfected with p65 mutants S468A, S529A and S536A but not S276A, roflumilast and NTHi) is listed as “synergistically enhanced”; in assay [3] (in IKKβ-CA- but not IKKα-CA-transfected BEAS-2B cells) it was “synergistically enhanced”; in assay [3] (p65-transfected cells), “synergistically enhanced”. Further, the “IKKβ-CA-induced Group A-chemokine expression” value in assay [4] (cells overexpressing PDE4B2-WT or PDE4B2-D392A) and in assay [4] (cells transfected with PDE4B2-D392A) was “unable to fully inhibit” in each case. Further, the “expression of PDE4D” value in assay [5] was “up-regulated by NTHi or roflumilast but no significant synergistic effect”.
